Columns and labels:
[1] = for period of constant, zero-order in vitro release of risperidone: FIGS. 4, 5
Method: Singly capped devices were weighed and tared on a conventional laboratory balance. The open end of each device was fitted with a small funnel, and each salt form of drug to be tested was loaded into the reservoir in small (about 10-about 50 mg) portions. When necessary, each added portion of solid was tamped down to the base of the reservoir prior to the next addition. This process was repeated until a specific loading target was met (generally about 250-500 mg). The filled reservoir was then capped with either a closed PEEK cap or a cap configuration identical to that used on the first end of the device, vide supra.
The assembled devices were weighed and then loaded into a custom-built vacuum hydrator. The air space within each device was evacuated by placing the device in a vacuum (<0.5 torr) for no less than 30 min. The devices were then back-filled with phosphate-buffered saline (pH 7.4) applied with a back pressure of 5-10 psi above atmospheric pressure for at least one hour. The devices were then retrieved from the hydration apparatus, wiped with a tissue to absorb any external fluid, weighed, and transferred to petri dishes containing buffer for the drug output assay, vide infra. The success of the hydration step was determined by the measuring the increase in mass before and after hydration.
The dish was placed in an incubator with pCO2 adjusted to give an average buffer pH of 7.4. Approximately once per day, the dishes were retrieved from the incubator. Each device was transferred to a new dish containing an equivalent amount of buffer and then returned to the incubator.
The retained receiving buffer samples were acidified with 3.0 mL of 0.1 M HCl and allowed to stand for approximately 1 hour. An aliquot of each sample (generally 100 μL) was transferred to a single well of a UV-transparent 96 well plate along with 100 μL of 0.1 M HCl diluent. After plating, the absorbance of each well was recorded at 270 nm using a Molecular Devices spectrophotometer. The absorbances were converted into concentrations (and ultimately output mass per day) by comparison to a standard curve. Samples that absorbed outside of the linear range of the instrument were diluted and re-read, as appropriate.

[2] = general statement in the description; cited from earlier work
[3] = In vivo pharmacokinetics, device as subcutaneous implant in rats
Method: Six male Sprague Dawley rats (Charles River; Hollister, Calif.) of an initial weight of approximately 250-280 grams were administered a device as a subcutaneous implant. This study complied with all applicable sections of the Final Rules of the Animal Welfare Act regulations (9 CFR), the Public Health Service Policy on Humane Care and Use of Laboratory Animals, the Guide for the Care and Use of Laboratory Animals. […] All animals were weighed and the hair was clipped and removed from the dorsal area prior to dose administration. All animals were anesthetized with isoflurane via an induction chamber and maintained in the appropriate plane of anesthesia using isoflurane inhalant (1-3%) and a vaporizer. The dorsal area of the animal was prepared for implantation using appropriate surgical scrub and ethanol. Aseptic technique was used during implantation. A small incision was made in the skin and a single device implant gently placed in the dorsal subcutaneum using a sterile implanter tool. Following administration, the skin incision was closed with sterile suture. The animals were given an appropriate dose of analgesia (see table below) and allowed to recover.
The animals were euthanized following the blood collection.
Body weights were measured on the day of test article administration and weekly thereafter.
Blood volumes of approximately 0.8 to 1.0 mL were collected at each time point, placed into Vacutainer tubes containing EDTA, and kept on wet ice until processing. For preparation of plasma, tubes were mixed by gentle inversion several times and centrifuged under refrigeration (approximately 2-8° C.) for approximately 15 minutes at approximately 2800 rpm (˜1000×g). Plasma was split into two approximately equal aliquots and transferred to labeled screw-top tubes for storage, and stored at approximately (−60° C. to −80° C.) until shipment to the analytical lab.
Using aseptic technique, the implant site was opened up and a photo of the implant field was taken. Blood draws were made four hours and 24 hours after implant removal. Any observations were recorded.
Bioanalytical measurements of active moiety (risperidone+9-OH risperidone) were conducted by Integrated Analytical Solutions (Berkeley, Calif.) using an LCMS method validated to resolve risperidone and 9-OH risperidone in rat plasma with a lower limit of quantitation (LLQ) of 0.5 ng/mL for each analyte.
Plasma concentrations were normalized to initial body weight for each time point and plotted versus time.

[4] = subcutaneous implant, FIGS. 7, 8

Cc1nc2n(c(=O)c1CCN1CCC(c3noc4cc(F)ccc34)CC1)CCCC2.O=C(O)c1ccccc1 [risperidone benzoate, reference compound]
in vitro output pattern relative to the therapeutic window ([1]; FIG. 2, upper limit 2.5 mg/day): rises to high levels before falling

Cc1nc2n(c(=O)c1CCN1CCC(c3noc4cc(F)ccc34)CC1)CCCC2 [risperidone free base, risperidone, reference compound]
solubility in water [2]: extremely insoluble in water

CCCCC(=O)O.Cc1nc2n(c(=O)c1CCN1CCC(c3noc4cc(F)ccc34)CC1)CCCC2 [risperidone pentanoate]
period of constant plasma level of active moiety [3, 4]: greater than 60 days
initial period in which in vitro output is slightly above the therapeutic window ([1]; FIG. 4, upper limit 2.5 mg/day): 2 weeks
period of constant, zero-order in vitro release of risperidone [1]: at least 60 days

dodecanoate
solubility in water [2]: not appreciably more soluble than the free base form

risperidone hexanoate
examination of the implant site ([3]; after 118 days of subcutaneous implantation): no evidence of inflammation or other adverse tissue responses
plasma level of active moiety following removal of the device ([3]; below LLQ, 4 h and 24 h after implant removal at day 118): < 0.5 ng/mL
plasma level of active moiety (risperidone plus 9-OH risperidone) ([3]; subcutaneous implant, 290-300 mg salt per device, normalized to initial body weight, constant level after 4 hour burst): about 20 ng/mL
period of constant plasma level of active moiety [3, 4]: 118 days
period of constant plasma level of active moiety ([3]; subcutaneous implant, until device removal, FIG. 7): about 4 months
period of in vitro release of risperidone within the therapeutic range ([1]; Example 6, devices 172, 180, 360 and 364, followed for 90-100 days, FIG. 5): ≥ 90 days
period of in vitro release at a constant rate within the therapeutic range ([1]; Example 7, followed for 6 months, FIG. 6): 6 months
period of constant, zero-order in vitro release of risperidone [1]: 30 to 90 days

Reference: patent US10137081B2, “Device and method for sustained release of antipsychotic medications” (DELPOR, INC., priority 2012, dated 2018)
